Measurements: patent US6525091B2, “Substituted diarylureas as stimulators for Fas-mediated apoptosis” (Telik, Inc., priority 2001, dated 2003)

Key:
synoviocytes = assay: Stimulation of Fas-mediated apoptosis with h-HFE7A anti-human Fas antibody, XTT cell viability, stimulation index; format: cell-based; conditions: 10 μM compound with h-HFE7A 1000 ng/mL, synoviocytes from rheumatoid arthritis patients, 16 hours
Text: Anti-human Fas antibody h-HFE7A, humanized antibody was obtained from Sankyo Co., Ltd. This antibody induces apoptosis when cross-linked with secondary antibody in vitro.
Samples of human synovium were obtained from rheumatoid arthritis patients at the time of total knee replacement surgery or synoviectomy. Synovial tissue was minced into small pieces and was digested with collagenase and cultured in Ham's F12 medium supplemented with 10% fetal bovine serum (F10F) in a humidified 5% CO2 atmosphere at 37° C. Adherent cells were considered as synoviocytes and were cultivated in F10 F.
Cell viability was determined with the XTT method described in Cancer Res. 48:4827 (1988). Ninety-six well flat plates were precoated with anti-human IgG. h-HFE7A (1000 ng/mL) and/or 10 μM of a compound of this invention were added and incubated for 2 hours. Synoviocytes were seeded (10,000/well) and incubated for 16 hours. Background wells received culture medium only. XTT (2,3-Bis[2-methoxy-4-nitro-sulfophenyl]-2H-tetrazolium-5-carboxanilide), final concentration 200 μg/mL, and phenazine methosulfate, final concentration 5 μM, were added to each well, and further incubated for 4 hours. The absorbance at 450 nm was measured and cell viability was determined as follows: [formula]
Enhancement of Fas-mediated apoptosis by compounds of this invention was determined by the stimulation index (SI): [formula] […]

hepatocytes = assay: Fas-dependent apoptosis, FACS analysis of DNA fragmentation (propidium iodide) and annexin V staining; format: cell-based; conditions: at 10 μM
Experimental: Assays for Fas-dependent apoptosis are known in the art. See, for example, Ruiz-Ruiz et al, Cell Death Diff. 271 (1999); and Muller et al., J. Exp. Therap. 188:2033 (1998).
Apoptosis is identified by detection of the DNA fragmentation pattern characteristic of apoptotic cell death. In this Example, apoptosis is detected and measured by FACS® analysis carried out in a FACScan® flow cytometer (Becton Dickinson) using CellQuest software. Quantification of DNA fragmentation is performed by FACS® analysis of propidium iodide-stained nuclei as described in Nicolletti et al., J. Immunol. Methods 139:271-279 (1991). Hepatocytes floating in the culture medium are collected by centrifugation at 200×g. Adherent hepatocytes are harvested-by incubation with 1% trypsin for 1 min. The cells are washed in phosphate-buffered saline (PBS), suspended in hypotonic lysis buffer (0.1% sodium citrate, 0.1% Triton X, and […] propidium iodide) (Sigma) and incubated at 4° C. for 6 hours. Cells are then analyzed for DNA content by flow cytometry.
Early apoptotic changes are identified using annexin V-Fluos (Boehringer Mannheim) which binds to phosphatidylserine molecules (PS) exposed on apoptotic, but not normal, cell membranes (PS is normally restricted to the inner leaflet of the cell membrane bilayer). […] Cells are incubated for 10-15 min and analyzed on a flow cytometer using CellQuest software. […]

O=C(Nc1ccc(Br)c([N+](=O)[O-])c1)Nc1ccc(Br)c([N+](=O)[O-])c1 [Compound 3]
Enhancement of Fas-mediated apoptosis, stimulation index (SI) (synoviocytes): positive (An SI over 2.0 was considered positive)
stimulation of Fas-dependent apoptosis (hepatocytes): stimulation of Fas-dependent apoptosis
